Experimental data published in US6692743B1, “Apoptosis of naive human NK cells by crosslinking of their FcγRIIIa molecules with a rat IgG2b (LO-CD2a/BTI-322) or its IgG1 humanized monoclonal antibody” (Universite Catholique de Louvain, priority 1998, dated 2004).
Numbered stars: 1 amine (or outer) side, 2 acyl side, 3 side chain; on linkers, the order of the positions; unused ones are H or OH. Bridge positions count the residues as written; N and C are the ends. Square brackets hold non-standard residues; d marks the D form. Peptide text beside a SMILES is read from it. I, II: the chains in the order shown. Actinocin(9to1) = Cc1c2oc3c(C)ccc(C(=O)[*:1])c3nc-2c(C(=O)[*:2])c(N)c1=O; NMeV = CN[C@H](C(=O)O)C(C)C; Sar = CNCC(=O)O

These compounds were tested on freshly isolated NK cells (assay: Effect of different inhibitors on LO-CD2a mediated NK apoptosis (PI, flow cytometry)). Details: 3 h pre-incubation with inhibitor, then 3 hours with LO-CD2a; 5 donors.
Assay type: cell-based, human
Protocol: Effect of different inhibitors on LO-CD2a mediated NK apoptosis. 100 ul of freshly isolated NK cells (10^6/ml) were pre-incubated for 3 h at 37° C. in a 96 well plate with EGTA (20 mM), staurosporin (250 nM), quinacrine ([…]), cyclosporin A ([…]), FK506 ([…]), wortmannin (500 ng/ml), concanamycin A ([…]), cytochalasine D (1 mg/ml), actinomycin) (500 ng/ml final concentration), NOK-1 (25 mg/ml) or medium alone. After incubation for 3 hours with LO-CD2a ([…] final concentration) propidium iodide was added and cell mortality was analysed by flow cytometry.

Compound	inhibition of LO-CD2a mediated NK apoptosis (in words)
O=C(O)CN(CCOCCOCCN(CC(=O)O)CC(=O)O)CC(=O)O [EGTA]	completely inhibited
Cc1c2oc3c(C)ccc(C(=O)N[C@@H]4C(=O)N[C@H](C(C)C)C(=O)N5CCC[C@H]5C(=O)N(C)CC(=O)N(C)[C@@H](C(C)C)C(=O)O[C@@H]4C)c3nc-2c(C(=O)N[C@@H]2C(=O)N[C@H](C(C)C)C(=O)N3CCC[C@H]3C(=O)N(C)CC(=O)N(C)[C@@H](C(C)C)C(=O)O[C@@H]2C)c(N)c1=O [actinomycin D, Actinomycin D] (I: T[dV]P[Sar][NMeV] / II: T[dV]P[Sar][NMeV]; ester I:1-I:C, II:1-II:C; linker I:N-II:N via Actinocin(9to1))	did not have any blocking effect
C/C=C/[C@H]1O[C@@](O)([C@@H](C)[C@H](O)[C@H](C)[C@H]2OC(=O)/C(OC)=C/C(C)=C/[C@@H](C)[C@@H](O)[C@@H](CC)[C@@H](O)[C@H](C)C/C(C)=C/C=C/[C@@H]2OC)C[C@@H](O[C@H]2C[C@@H](O)[C@H](OC(N)=O)[C@@H](C)O2)[C@@H]1C [concanamycin A, Concanamycin A]	failed to inhibit apoptosis
CCN(CC)CCCC(C)Nc1c2ccc(Cl)cc2nc2ccc(OC)cc12 (centres unmarked) [quinacrine, Quinacrine]	completely inhibited
Cyclosporin A	partially inhibited
